The results in this text go back to ChEMBL document CHEMBL4823307, “Discovery of benzimidazole derivatives as potent and selective aldehyde dehydrogenase 1A1 (ALDH1A1) inhibitors with glucose consumption improving activity” (Bioorg Med Chem, 2021).

Data set [1] addresses T1, Aldehyde dehydrogenase 1A1 (Homo sapiens, UniProt P00352).
T1 sequence (P00352 whole entry): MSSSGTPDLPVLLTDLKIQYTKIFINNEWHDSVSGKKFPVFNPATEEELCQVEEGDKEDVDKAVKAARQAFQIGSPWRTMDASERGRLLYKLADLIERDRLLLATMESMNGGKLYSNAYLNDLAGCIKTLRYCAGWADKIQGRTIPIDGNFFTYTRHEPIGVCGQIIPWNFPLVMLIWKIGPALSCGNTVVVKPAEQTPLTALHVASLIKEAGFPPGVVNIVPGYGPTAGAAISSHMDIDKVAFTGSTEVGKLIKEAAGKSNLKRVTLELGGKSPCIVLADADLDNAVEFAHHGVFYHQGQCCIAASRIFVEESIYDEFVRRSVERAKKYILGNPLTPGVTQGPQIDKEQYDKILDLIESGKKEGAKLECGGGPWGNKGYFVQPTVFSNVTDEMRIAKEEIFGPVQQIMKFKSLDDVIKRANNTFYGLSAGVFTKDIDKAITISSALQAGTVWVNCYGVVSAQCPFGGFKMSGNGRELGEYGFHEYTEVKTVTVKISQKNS
The data set can be described thus: Inhibition of human ALDH1A1 assessed as NADH formation using propionaldehyde as substrate by spectrophotometry.

For data set [2], the target named is T2, Aldehyde dehydrogenase 1A1 (Homo sapiens) (UniProt P00352).
T2 sequence (whole entry): T1 sequence (P00352 whole entry)
The data set can be described thus: Inhibition of human ALDH1A1 assessed as NADH formation using propionaldehyde as substrate at 10 uM by spectrophotometry.

A further data set concerns the target T3, Retinal dehydrogenase 2 (Homo sapiens, UniProt O94788).
T3 sequence (O94788 whole entry): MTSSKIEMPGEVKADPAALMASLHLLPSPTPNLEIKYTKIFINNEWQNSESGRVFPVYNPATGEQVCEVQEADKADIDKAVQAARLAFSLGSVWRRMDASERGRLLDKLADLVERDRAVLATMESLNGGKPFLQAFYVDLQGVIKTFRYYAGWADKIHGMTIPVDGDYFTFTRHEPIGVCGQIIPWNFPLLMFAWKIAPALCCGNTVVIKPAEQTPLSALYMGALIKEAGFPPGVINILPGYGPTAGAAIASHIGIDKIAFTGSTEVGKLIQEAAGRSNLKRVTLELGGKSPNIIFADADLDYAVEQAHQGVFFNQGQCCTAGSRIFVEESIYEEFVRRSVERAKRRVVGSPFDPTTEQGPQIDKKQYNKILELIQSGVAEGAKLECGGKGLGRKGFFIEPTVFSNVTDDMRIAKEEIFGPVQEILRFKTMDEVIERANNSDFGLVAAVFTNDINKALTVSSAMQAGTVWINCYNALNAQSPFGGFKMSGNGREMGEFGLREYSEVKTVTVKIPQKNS
The data set can be described thus: Inhibition of human ALDH1A2 assessed as NADH formation using propionaldehyde as substrate by spectrophotometry.

Data set [3] has as its target T4, Retinaldehyde dehydrogenase 3 (Homo sapiens, UniProt P47895).
T4 sequence (P47895 whole entry): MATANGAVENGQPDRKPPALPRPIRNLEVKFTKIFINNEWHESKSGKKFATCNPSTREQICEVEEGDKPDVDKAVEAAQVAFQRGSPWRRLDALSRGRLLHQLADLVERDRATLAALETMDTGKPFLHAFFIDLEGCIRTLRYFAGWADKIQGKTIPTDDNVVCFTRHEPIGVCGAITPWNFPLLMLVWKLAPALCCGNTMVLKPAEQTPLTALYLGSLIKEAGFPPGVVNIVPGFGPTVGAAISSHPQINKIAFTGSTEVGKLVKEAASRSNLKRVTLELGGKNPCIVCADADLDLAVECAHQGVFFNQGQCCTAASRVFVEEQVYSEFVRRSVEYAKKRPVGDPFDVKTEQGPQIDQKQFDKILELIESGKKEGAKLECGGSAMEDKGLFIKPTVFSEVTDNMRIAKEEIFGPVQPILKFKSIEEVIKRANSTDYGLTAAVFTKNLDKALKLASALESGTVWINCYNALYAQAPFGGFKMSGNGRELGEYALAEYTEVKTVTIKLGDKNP
Description: Inhibition of human ALDH1A3 assessed as NADH formation using propionaldehyde as substrate by spectrophotometry.

For data set [4], the target named is T5, Aldehyde dehydrogenase, mitochondrial (Homo sapiens, UniProt P05091).
T5 sequence (P05091 whole entry): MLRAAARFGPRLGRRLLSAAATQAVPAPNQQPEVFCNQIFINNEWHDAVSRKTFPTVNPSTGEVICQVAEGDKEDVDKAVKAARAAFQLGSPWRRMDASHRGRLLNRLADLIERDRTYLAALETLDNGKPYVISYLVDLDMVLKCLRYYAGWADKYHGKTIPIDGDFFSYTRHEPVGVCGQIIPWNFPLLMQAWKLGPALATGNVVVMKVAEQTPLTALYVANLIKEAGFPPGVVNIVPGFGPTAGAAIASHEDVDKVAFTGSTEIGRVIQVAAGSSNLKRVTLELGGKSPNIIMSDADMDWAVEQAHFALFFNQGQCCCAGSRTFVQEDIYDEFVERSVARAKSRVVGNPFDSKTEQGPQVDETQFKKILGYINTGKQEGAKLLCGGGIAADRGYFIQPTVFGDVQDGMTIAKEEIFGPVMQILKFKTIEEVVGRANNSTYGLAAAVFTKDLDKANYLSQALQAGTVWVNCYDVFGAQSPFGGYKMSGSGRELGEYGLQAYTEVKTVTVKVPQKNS
The data set can be described thus: Inhibition of human ALDH2 assessed as NADH formation using propionaldehyde as substrate by spectrophotometry.

For data set [5], the target named is T6, Aldehyde dehydrogenase, dimeric NADP-preferring (Homo sapiens, UniProt P30838).
T6 sequence (P30838 whole entry): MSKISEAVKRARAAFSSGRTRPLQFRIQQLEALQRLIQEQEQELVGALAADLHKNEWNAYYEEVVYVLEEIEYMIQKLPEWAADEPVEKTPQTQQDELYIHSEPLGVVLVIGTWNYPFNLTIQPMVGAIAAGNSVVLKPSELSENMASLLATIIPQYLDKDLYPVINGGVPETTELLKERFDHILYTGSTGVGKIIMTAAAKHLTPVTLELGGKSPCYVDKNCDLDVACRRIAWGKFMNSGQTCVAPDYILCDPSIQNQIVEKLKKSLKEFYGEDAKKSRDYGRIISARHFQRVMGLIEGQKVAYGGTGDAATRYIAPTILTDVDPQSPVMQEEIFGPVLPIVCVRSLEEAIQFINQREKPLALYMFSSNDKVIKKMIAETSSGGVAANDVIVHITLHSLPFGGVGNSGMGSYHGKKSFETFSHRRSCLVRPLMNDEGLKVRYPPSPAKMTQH
Description: Inhibition of human ALDH3A1 assessed as NADH formation using propionaldehyde as substrate by spectrophotometry.

Data set [6] in a line: Cytotoxicity against human HepG2 cells assessed as cell viability at 0.1 uM incubated for 24 hrs by MTT assay relative to control. The format is cell-based. The settings on record: read-out: Activity.
Data set [7] in a line: Cytotoxicity against human HepG2 cells assessed as cell viability at 1 uM incubated for 24 hrs by MTT assay relative to control. Type of data set: cell-based. The following applies: read-out: Activity.
Data set [8] in a line: Cytotoxicity against human HepG2 cells assessed as cell viability at 10 uM incubated for 24 hrs by MTT assay relative to control. The format is cell-based. The following applies: read-out: Activity.
Data set [9] has as its system HepG2. The data set can be described thus: Cytotoxicity against human HepG2 cells assessed as morphological changes at 0.1 to 10 uM incubated for 24 hrs. The format is cell-based. The following applies: hepg2, 24 h, dose 0.1-10 µM.
For data set [10], the system named is HepG2. The data set can be described thus: Increase in glucose consumption in human HepG2 cells at 10 uM by glucose oxidase assay. Type of data set: functional.
A short description of data set [11]: Metabolic stability in human liver microsomes assessed as half life at 2 ug/ml measured up to 45 mins by LC-MS/MS analysis. The following applies: dose 2 µg/ml. Type of data set: ADME, Microsome.
Data set [12] can be described thus: Metabolic stability in human liver microsomes assessed as intrinsic clearance at 2 ug/ml measured up to 45 mins by LC-MS/MS analysis. The format is ADME, Microsome. The following applies: dose 2 µg/ml, read-out: CLH.
Data set [13] in a line: Metabolic stability in human liver microsomes assessed as first order elimination rate constant at 2 ug/ml measured up to 45 mins by LC-MS/MS analysis. Type of data set: ADME, Microsome. The following applies: dose 2 µg/ml.

Consider `CC(C)=CCn1c(CN2CCN(C(=O)C3CC3)CC2)nc2ccccc21`, for which the 50% inhibitory concentration (IC50) in [1] turned out to be 1500 nM; on Retinal dehydrogenase 2, 1620 nM; in data set [3], 1270 nM; in data set [4] it was 1480 nM; in [5] it was 2150 nM. The inhibition in [2] came out at 74.3%.
As to `O=C(C1CC1)N1CCN(Cc2nc3ccccc3n2Cc2cccc(Cl)c2)CC1`, the IC50 in data set [1] was determined as 2110 nM; at Retinal dehydrogenase 2, 890 nM; in data set [3], 1010 nM; in [4], 2310 nM; in data set [5], 1450 nM. The inhibition in data set [2] was 71.6%.
`O=C(C1CC1)N1CCN(Cc2nc3ccccc3n2Cc2cccc(C(F)(F)F)c2)CC1`: the IC50 in [1] turned out to be 921 nM; on Retinal dehydrogenase 2, 1370 nM; in data set [3] it was 590 nM; in data set [4], 2170 nM. Moreover, the inhibition in data set [2] stood at 82.1%. In addition, the viability at 24 h, 0.1 µM in [6] was determined as 95.9%. The viability at 24 h, 1 µM in data set [7] is 91.8%. Further, the viability at 24 h, 10 µM in data set [8] worked out at 90%. In addition, the results for the Activity result in the data set on HepG2 [9] and in the data set on HepG2 [10] were “Non-Toxic” and 30%, respectively. Also, the half-life at 2 ug/ml in [11] came out at 27 min. Moreover, in data set [12], the microsomal CLint at 2 ug/ml was 104 µL/min/mg. Besides, the k el at 0.75 h, 2 ug/ml in data set [13] was 0.000433 s⁻¹.
Turning to `Cc1cccc(Cn2c(CN3CCN(C(=O)C4CC4)CC3)nc3ccccc32)c1`, the half-maximal inhibitory concentration (IC50) worked out at 243 nM in [1], 1580 nM on Retinal dehydrogenase 2, 2120 nM in [3] and 790 nM in [4]. Further, the inhibition in [2] was found to be 89.1%. Also, the viability at 24 h, 0.1 µM in data set [6] is 93.4%. For the same compound, the viability at 24 h, 1 µM in data set [7] amounted to 91.3%. Moreover, in data set [8], the viability at 24 h, 10 µM worked out at 90%. Further, the Activity entry is reported as “Non-Toxic” with HepG2 [9] and 25% in the data set on HepG2 [10]. For the same compound, the half-life at 2 ug/ml in [11] is 35 min. In addition, the microsomal CLint at 2 ug/ml in [12] came out at 80 µL/min/mg. Also, the k el at 0.75 h, 2 ug/ml in data set [13] is 0.000333 s⁻¹.
Turning to `O=C(C1CC1)N1CCN(Cc2nc3ccccc3n2Cc2ccccc2Cl)CC1`, the half-inhibitory concentration (IC50) in data set [1] was 1020 nM; on Retinal dehydrogenase 2 it was 1970 nM; in [3], 2410 nM; in [4], 3160 nM; in [5] it was 1900 nM. The inhibition in [2] amounted to 78.3%. Also, the viability at 24 h, 0.1 µM in data set [6] was determined as 93.8%. In addition, the viability at 24 h, 1 µM in [7] was 91.9%. The viability at 24 h, 10 µM in data set [8] was found to be 85.7%. Moreover, the Activity result was “Non-Toxic” with HepG2 [9] and 28% in the data set with HepG2 [10]. Also, in data set [11], the half-life at 2 ug/ml was found to be 32 min. For the same compound, the microsomal CLint at 2 ug/ml in [12] amounted to 88 µL/min/mg. Also, the k el at 0.75 h, 2 ug/ml in data set [13] is 0.000367 s⁻¹.
`CCC(=O)N1CCN(Cc2nc3ccccc3n2Cc2cccc(C)c2)CC1`: the IC50 stood at 626 nM in data set [1], 2090 nM at Retinal dehydrogenase 2, 1680 nM in data set [3] and 3230 nM in data set [4]. The inhibition in data set [2] came to 85.1%. Besides, the viability at 24 h, 0.1 µM in [6] turned out to be 89.7%. Also, the viability at 24 h, 1 µM in data set [7] came out at 91.8%. For the same compound, the viability at 24 h, 10 µM in data set [8] is 85.4%. Besides, the Activity result in the data set on HepG2 [9] was “Non-Toxic”; in the data set with HepG2 [10], 15%.
